Patent US8735321B2, “Process for the production of particles comprising active agrochemical ingredients in amorphous form” (priority 2008, dated 2014)

Test: crystal formation of active ingredient mixtures from acetone after one week storage at 20° C.
Format: physicochemical
Settings: stored one week at 20° C.
Protocol: The active ingredients were dissolved in acetone (see Table 1) and combined to give the mixing ratios (Table 2). The acetone was evaporated for two days at room temperature and then stripped off in vacuum for 5 h at 80° C. (method A). Temperature-insensitive active ingredients Were subsequently melted for an additional 15 h at 140° C. (method B). The samples were cooled to 20° C. in each case and stored for one week at 20° C.

[1] = method B (as A, then melted 15 h at 140° C.)

Row | SMILES | Crystal formation [1] | Crystal formation (method A (acetone evaporated, vacuum 5 h at 80° C.))
1 | Fc1ccc([C@]2(Cn3cncn3)O[C@H]2c2ccccc2Cl)cc1 (racemic) [Epoxiconazole] | Yes | –
2 | O=C(Nc1ccccc1-c1ccc(Cl)cc1)c1cccnc1Cl [Boscalid] | Yes | –
3 | Cn1cc(C(=O)Nc2ccccc2-c2cc(F)c(F)c(F)c2)c(C(F)F)n1 [Fungicide A, N-(3′,4′,5′-trifluorobiphenyl-2-yl)-3-difluoromethyl-1-methyl-1H-pyrazole-4-carboxamide] | Yes | –
4 | COCC(=O)N(c1c(C)cccc1C)C(C)C(=O)OC (centres unmarked) [Metalaxyl] | – | Yes
5 | CC1(C)CCC(=Cc2ccc(Cl)cc2)C1(O)Cn1cncn1 (centres unmarked) [Triticonazole] | Yes | –
